Measured values reported in ChEMBL document CHEMBL1201862, “PubChem BioAssay data set” (2004).
Activity calls are given as the source filed them.

How the values were obtained:
Large T antigen = Large T antigen (Simian virus 40, UniProt P03070); format: functional, Betapolyomavirus macacae;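 note: Confirmatory-stage PubChem screen for compounds that inhibit SV40 T antigen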
[1] = molecular target: Eukaryotic translation initiation factor 4E (Mus musculus, UniProt P63073); assay: blockers of eIF4G binding by eIF4E – biochemical, TR-FRET, dose response (AID 855); format: functional;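 note: potency for disrupting eIF4E binding to eIF4GI seen as loss of FRET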
Sequence of Eukaryotic translation initiation factor 4E (P63073 whole entry): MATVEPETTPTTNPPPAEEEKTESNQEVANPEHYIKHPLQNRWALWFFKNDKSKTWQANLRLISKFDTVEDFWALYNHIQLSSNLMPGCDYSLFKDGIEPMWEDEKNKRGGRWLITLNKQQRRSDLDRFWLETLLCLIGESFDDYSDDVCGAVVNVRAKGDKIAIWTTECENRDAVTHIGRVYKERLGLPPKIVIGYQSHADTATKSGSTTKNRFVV

[2] = molecular target: T1, Short transient receptor potential channel 4 (Mus musculus, UniProt Q9QUQ5); assay: block of DAMGO-driven TRPC4 calcium entry – cell-based, HEK293 TRPC4/mu-opioid, Fluo-4 calcium, dose response (AID 434942); format: functional;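 note: potency of inhibitors blocking the TRPC4 calcium response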
T1 sequence (Q9QUQ5 whole entry): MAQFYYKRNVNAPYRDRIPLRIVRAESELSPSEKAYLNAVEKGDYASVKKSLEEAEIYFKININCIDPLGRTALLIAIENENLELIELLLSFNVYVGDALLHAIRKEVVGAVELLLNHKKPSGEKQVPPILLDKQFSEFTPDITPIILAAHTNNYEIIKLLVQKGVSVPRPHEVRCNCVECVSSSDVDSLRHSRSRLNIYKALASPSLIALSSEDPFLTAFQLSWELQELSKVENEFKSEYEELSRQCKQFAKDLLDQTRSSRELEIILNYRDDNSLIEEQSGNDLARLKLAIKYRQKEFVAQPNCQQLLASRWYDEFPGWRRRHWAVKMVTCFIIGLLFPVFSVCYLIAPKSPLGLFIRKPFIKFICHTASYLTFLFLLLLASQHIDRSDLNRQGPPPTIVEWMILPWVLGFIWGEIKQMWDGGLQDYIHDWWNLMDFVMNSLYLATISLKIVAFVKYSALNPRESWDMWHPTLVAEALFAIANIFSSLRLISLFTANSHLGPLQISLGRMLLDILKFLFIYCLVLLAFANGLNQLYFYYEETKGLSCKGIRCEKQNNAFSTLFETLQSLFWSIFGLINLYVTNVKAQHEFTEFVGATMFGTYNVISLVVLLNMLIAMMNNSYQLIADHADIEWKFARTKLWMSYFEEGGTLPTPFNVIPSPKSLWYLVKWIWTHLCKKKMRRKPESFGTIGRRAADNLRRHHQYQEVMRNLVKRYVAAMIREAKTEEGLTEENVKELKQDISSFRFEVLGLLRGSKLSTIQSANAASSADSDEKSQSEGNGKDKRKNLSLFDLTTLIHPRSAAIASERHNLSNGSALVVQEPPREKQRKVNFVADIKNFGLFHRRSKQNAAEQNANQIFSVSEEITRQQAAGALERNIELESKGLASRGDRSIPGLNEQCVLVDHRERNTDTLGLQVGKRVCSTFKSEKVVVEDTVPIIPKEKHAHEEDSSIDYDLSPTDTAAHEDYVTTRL

Aminopeptidase N = molecular target: T2, Aminopeptidase N (Plasmodium falciparum FcB1/Columbia, UniProt O96935); assay: malaria alanyl aminopeptidase activity blockers – biochemical, fluorogenic H-Leu-NHMec substrate, 1536-well (AID 1445); parameters: species or system Plasmodium falciparum 3D7, 3D7
T2 sequence (O96935 whole entry): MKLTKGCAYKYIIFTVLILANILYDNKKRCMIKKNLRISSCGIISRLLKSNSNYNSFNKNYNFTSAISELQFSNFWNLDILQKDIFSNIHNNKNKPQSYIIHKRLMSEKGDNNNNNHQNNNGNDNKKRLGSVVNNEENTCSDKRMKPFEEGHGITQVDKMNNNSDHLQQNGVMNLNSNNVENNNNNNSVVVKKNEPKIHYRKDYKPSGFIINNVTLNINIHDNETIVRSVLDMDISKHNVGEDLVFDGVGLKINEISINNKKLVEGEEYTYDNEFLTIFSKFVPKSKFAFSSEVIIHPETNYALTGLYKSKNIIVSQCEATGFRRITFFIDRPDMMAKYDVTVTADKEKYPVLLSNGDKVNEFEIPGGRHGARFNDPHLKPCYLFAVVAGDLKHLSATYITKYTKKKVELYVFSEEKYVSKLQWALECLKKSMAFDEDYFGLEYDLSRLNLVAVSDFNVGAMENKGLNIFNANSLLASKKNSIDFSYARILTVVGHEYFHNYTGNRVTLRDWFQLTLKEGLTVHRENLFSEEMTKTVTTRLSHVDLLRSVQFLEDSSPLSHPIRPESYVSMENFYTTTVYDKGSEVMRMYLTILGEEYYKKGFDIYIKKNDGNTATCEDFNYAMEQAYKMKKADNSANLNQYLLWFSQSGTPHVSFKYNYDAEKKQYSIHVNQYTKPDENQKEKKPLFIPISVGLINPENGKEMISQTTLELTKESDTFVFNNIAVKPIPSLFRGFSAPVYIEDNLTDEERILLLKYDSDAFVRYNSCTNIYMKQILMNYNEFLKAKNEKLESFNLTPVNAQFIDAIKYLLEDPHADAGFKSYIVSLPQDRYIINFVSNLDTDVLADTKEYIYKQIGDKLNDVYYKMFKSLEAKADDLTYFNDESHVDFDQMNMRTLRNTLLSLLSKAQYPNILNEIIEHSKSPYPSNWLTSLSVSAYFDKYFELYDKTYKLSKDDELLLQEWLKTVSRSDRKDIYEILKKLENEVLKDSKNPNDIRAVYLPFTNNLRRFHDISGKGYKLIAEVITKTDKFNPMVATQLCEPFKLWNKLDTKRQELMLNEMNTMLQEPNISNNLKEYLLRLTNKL

Leucine aminopeptidase = molecular target: T3, Leucine aminopeptidase (Plasmodium falciparum 3D7, UniProt Q8IL11); assay: P. falciparum M17LAP inhibitors, primary screen, biochemical, fluorogenic H-Leu-NHMec substrate, 1536-well (AID 1619); format: functional
T3 sequence (Q8IL11 whole entry): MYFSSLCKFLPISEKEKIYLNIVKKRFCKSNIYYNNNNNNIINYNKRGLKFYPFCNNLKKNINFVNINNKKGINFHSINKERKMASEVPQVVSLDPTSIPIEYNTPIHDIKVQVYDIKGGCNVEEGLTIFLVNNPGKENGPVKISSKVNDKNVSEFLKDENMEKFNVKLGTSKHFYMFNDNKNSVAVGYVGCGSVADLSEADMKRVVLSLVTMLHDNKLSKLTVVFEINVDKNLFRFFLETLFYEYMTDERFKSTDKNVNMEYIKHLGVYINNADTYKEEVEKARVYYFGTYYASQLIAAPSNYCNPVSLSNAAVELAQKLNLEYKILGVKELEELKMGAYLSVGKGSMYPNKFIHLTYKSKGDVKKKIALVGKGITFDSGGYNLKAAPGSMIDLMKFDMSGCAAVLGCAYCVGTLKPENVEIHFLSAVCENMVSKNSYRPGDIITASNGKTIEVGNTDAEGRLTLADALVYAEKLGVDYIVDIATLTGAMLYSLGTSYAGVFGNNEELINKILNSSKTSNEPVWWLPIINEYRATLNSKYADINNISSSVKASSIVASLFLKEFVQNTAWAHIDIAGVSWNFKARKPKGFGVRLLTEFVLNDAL

[3] = molecular target: T4, Ubiquitin-conjugating enzyme E2 N (Homo sapiens, UniProt P61088); format: functional;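 note: Dose-response confirmation in a TR-FRET assay detecting UBC13-driven polyubiquitin chain formation, inhibition measured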
T4 sequence (P61088 whole entry): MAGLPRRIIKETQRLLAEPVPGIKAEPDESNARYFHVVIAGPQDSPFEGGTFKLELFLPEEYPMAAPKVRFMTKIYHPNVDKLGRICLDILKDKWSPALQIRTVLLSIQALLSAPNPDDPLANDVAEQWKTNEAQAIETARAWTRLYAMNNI

[4] = molecular target: T5, Replicative DNA helicase DnaB (Mycobacterium tuberculosis, UniProt P9WMR3); assay: DnaB intein splicing inhibitors, dose response, biochemical, cell-free fluorescence (AID 449749); format: functional
T5 sequence (P9WMR3 whole entry): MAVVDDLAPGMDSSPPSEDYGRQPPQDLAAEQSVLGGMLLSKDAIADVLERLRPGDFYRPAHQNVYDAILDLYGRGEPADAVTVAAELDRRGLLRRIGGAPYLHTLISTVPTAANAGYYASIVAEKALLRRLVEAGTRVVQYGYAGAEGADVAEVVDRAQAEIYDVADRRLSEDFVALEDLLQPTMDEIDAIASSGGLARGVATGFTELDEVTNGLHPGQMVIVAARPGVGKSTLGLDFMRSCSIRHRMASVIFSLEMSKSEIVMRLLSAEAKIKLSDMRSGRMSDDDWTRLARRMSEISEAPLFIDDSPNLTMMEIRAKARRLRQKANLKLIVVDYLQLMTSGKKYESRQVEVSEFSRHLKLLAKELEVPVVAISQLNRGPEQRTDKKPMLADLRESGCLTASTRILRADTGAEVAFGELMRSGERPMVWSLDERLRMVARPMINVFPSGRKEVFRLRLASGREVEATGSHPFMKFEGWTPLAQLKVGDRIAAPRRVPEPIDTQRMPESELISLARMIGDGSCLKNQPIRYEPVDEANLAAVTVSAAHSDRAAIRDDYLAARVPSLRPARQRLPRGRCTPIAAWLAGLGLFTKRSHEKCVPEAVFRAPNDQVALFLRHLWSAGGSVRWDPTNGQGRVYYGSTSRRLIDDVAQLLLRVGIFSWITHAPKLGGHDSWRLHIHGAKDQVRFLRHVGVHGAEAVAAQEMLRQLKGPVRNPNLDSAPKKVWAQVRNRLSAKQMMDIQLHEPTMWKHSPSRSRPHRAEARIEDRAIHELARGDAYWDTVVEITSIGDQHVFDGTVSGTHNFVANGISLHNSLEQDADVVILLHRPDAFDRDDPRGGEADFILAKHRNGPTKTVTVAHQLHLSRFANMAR

Protein RecA = molecular target: T6, Protein RecA (Mycobacterium tuberculosis, UniProt P9WHJ3); assay: Fluorescence Cell-Free Homogeneous Dose Retest to Identify Inhibitors of RecA-Intein Splicing Activity. [Related pubchem assays (depositor defined):AID2097, AID2223, AID489010, AID492950]; format: functional
T6 sequence (P9WHJ3 whole entry): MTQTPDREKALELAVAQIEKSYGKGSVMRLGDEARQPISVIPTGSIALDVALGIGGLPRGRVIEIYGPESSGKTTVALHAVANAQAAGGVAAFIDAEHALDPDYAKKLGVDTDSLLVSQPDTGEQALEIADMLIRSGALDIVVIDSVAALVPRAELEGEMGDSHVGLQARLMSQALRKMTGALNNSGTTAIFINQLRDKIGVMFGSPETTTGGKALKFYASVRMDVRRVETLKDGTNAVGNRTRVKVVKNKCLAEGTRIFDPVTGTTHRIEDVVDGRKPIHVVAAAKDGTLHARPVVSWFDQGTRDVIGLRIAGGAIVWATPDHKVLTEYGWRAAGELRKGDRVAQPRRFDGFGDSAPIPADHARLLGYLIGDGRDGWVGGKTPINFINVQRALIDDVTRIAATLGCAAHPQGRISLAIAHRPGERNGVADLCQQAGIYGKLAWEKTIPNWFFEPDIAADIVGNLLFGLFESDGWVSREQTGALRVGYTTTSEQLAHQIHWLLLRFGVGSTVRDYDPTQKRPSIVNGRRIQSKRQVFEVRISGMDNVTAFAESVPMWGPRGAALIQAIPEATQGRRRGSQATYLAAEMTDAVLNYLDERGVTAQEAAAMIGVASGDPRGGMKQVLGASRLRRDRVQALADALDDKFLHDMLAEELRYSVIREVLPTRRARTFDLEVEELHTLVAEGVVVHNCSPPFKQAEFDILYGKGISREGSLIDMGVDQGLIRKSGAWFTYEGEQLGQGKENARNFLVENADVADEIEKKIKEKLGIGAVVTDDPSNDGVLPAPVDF

[5] = molecular target: DNA dC->dU-editing enzyme APOBEC-3G (Homo sapiens, UniProt Q9HC16); assay: Dose Response confirmation of small molecule APOBEC3G DNA Deaminase Inhibitors via a fluorescence-based single-stranded DNA deaminase assay. [Related pubchem assays (depositor defined):AID493012, AID493028]; format: functional
Sequence of DNA dC->dU-editing enzyme APOBEC-3G (Q9HC16 whole entry): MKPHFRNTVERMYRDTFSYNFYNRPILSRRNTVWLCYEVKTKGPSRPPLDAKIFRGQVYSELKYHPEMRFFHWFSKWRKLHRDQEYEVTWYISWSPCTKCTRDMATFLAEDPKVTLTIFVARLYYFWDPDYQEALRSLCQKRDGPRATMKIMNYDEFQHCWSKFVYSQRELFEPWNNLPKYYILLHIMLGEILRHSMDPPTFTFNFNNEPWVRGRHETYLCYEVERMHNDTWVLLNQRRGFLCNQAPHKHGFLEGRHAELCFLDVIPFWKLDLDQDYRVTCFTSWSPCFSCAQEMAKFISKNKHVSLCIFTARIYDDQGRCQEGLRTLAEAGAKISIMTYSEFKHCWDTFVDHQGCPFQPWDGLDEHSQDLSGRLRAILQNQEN

Nonstructural protein 1 = Nonstructural protein 1 (Influenza A virus, UniProt Q194T2); format: functional, Influenza A virus (A/California/07/2009(H1N1))
Sequence of Nonstructural protein 1 (Q194T2 whole entry): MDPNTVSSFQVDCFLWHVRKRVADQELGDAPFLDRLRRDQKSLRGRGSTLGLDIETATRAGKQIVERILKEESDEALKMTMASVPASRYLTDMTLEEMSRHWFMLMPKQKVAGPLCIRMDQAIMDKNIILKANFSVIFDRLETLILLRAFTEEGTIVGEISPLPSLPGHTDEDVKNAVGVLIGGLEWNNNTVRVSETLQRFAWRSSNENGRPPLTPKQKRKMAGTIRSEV

cells [6] = format: functional, cell-based
cells [7] = format: functional, cell-based; remark: listed apart in the source
[8] = Trypanosoma cruzi growth suppression in host cells – NIH3T3 host cells, beta-gal luminescence, confirmation (AID 2044); format: functional, cell-based;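 note: intracellular parasites grown in NIH/3T3 mouse fibroblasts as host cells; luminescent beta-galactosidase reporter signal from transgenic T. cruzi replicating inside host cells; inhibitors lower the luminescence signal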
[9] = NIH3T3 cell viability loss – ATP luminescence, mouse fibroblasts, counter-screen, dose response (AID 2010); format: functional, cell-based;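 note: cells exposed to compound for about 90 hours before reading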

Sequence of Large T antigen (P03070 whole entry): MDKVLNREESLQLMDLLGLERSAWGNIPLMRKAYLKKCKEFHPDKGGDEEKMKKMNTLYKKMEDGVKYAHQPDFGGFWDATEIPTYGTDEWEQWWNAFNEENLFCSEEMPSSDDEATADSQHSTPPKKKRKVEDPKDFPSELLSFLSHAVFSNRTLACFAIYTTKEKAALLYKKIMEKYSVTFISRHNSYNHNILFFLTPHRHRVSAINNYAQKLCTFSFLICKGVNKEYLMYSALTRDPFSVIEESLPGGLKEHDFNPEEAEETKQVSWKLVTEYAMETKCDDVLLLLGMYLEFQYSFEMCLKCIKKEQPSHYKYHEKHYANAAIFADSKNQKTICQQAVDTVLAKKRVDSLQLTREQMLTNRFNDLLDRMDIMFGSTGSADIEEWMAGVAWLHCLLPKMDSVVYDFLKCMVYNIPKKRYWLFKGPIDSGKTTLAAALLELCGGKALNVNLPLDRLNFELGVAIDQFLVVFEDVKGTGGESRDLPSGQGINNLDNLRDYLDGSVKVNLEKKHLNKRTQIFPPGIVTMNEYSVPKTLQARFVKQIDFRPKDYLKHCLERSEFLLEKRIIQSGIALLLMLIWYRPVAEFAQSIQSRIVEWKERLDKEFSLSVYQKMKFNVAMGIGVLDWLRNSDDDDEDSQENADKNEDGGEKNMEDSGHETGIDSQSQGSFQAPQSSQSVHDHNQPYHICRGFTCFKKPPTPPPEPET

For `Oc1ccc(-c2[nH]ncc2-c2cccc3cccnc23)c(O)c1`, the IC50 (Large T antigen) was 25.7 µM (active) and the IC50 [1] was > 64 µM (inactive).
In the case of `Fc1ccc(C2CCCN2Cc2nc(Cc3ccccc3)no2)cc1` (stereo unspecified), the IC50 [1] is reported as 50 µM (inactive).
In the case of `O=C(Nc1ccccc1Oc1cccnc1)C1CCCN(Cc2ccc(F)cc2)C1` (stereo unspecified), the EC50 [2] is reported as 3.35 µM (active).
In the case of `O=C(NN1C(=O)c2ccccc2NC12CCCCC2)c1ccccc1`, the IC50 (Aminopeptidase N) is reported as 6.87 µM (active).
In the case of `CCOc1cc(C2C(C#N)=C(N)Oc3[nH]nc(-c4ccccc4)c32)ccc1O` (stereo unspecified), the IC50 (Leucine aminopeptidase) is reported as 77.1 µM (active), the IC50 [3] is reported as > 20 µM (inactive) and the AC50 [4] is reported as 1.81 µM (active). For the same compound, the EC50 (Protein RecA) was 0.689 µM (active).
In the case of `CCOc1ccc(Nc2nc3cc(S(=O)(=O)N(CC)CC)ccc3o2)cc1`, the IC50 [5] is reported as > 100 µM (inactive).
For `COc1cc2cc(C(c3nnnn3C3CCCC3)N(C)C3CCCCC3)c(O)nc2cc1OC` (stereo unspecified), the IC50 [1] was > 64 µM (inactive).
With `O=C(Cc1ccccc1[N+](=O)[O-])OCc1cccc([N+](=O)[O-])c1` the EC50 [2] was 0.376 µM (active).
In the case of `Cc1nnc2sc(SCC(=O)Nc3ccc(Cl)cc3)nn2c1=O`, the IC50 (Nonstructural protein 1) is reported as 9.75 µM (active).
With `COc1ccc(CC(=O)Nc2nnc(C(C)C)s2)cc1` the IC50 [1] was 50 µM (inactive).
For `Cc1ccc(/C(=N/Nc2ncnc3ccccc23)C(=O)O)cc1`, the EC50 (cells [6]) was > 350 µM (not active), the EC50 (cells [7]) was > 350 µM (not active) and the IC50 (Nonstructural protein 1) was 9.46 µM (active).
For `Cc1cc(C)n(CC(=O)N/N=C/c2cc(Br)cc([N+](=O)[O-])c2O)n1`, the IC50 (Aminopeptidase N) was 19.2 µM (active), the EC50 [8] was 0.678 µM (active) and the EC50 [9] was 15.9 µM (active).
For `CSc1n/c(=N/C(C)=O)ss1`, the IC50 [5] was 25.8 µM (active).
